Data: PMC7096528, “Crystal structure of pathogenic Staphylococcus aureus lipase complex with the anti-obesity drug orlistat” (Scientific Reports, 2020)

Tests used:
[1] = molecular target: T1, Staphylococcus aureus lipase (SAL, glycerol ester hydrolase) (Staphylococcus aureus, UniProt A0A0U1MWF9); assay: co-crystal structure at […] Å; IC50 from purified-enzyme p-nitrophenyl butyrate hydrolysis assay; assay type: biochemical
T1 construct: gene lip; mature form containing 394 amino acid residues (recombinant, His-tagged; residues 4–385 determined in the native structure)

[2] = molecular target: the molecule itself; assay: SEC; Superdex 200 Increase 10/300 GL, 10 mg/mL SAL injected at 20 °C, 50 mM Tris-HCl pH 7.5, 0.2 M NaCl, 0.5 ml/min, BSA as standard for calibration

T1 sequence (A0A0U1MWF9 entry or part of it): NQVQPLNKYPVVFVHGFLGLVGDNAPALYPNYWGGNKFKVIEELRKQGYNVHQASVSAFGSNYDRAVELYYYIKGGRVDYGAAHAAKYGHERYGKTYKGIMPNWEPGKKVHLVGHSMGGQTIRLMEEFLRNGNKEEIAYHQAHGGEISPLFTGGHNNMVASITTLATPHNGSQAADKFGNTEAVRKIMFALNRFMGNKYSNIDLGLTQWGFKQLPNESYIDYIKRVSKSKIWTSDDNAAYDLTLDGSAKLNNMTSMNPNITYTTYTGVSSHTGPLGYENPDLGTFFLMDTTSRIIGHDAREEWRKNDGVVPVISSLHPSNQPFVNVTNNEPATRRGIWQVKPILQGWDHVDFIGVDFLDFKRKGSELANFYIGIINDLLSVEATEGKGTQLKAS

Molecule: CCCCCCCCCCC[C@@H](C[C@@H]1OC(=O)[C@H]1CCCCCC)OC(=O)[C@H](CC(C)C)NC=O [orlistat]
- IC50 [1]: 2400 nM

B1: Staphylococcus aureus lipase (SAL), native, mature form (enzyme)
chain: ANQVQPLNKYPVVFVHGFLGLVGDNAPALYPNYWGGNKFKVIEELRKQGYNVHQASVSAFGSNYDRAVELYYYIKGGRVDYGAAHAAKYGHERYGKTYKGIMPNWEPGKKVHLVGHSMGGQTIRLMEEFLRNGNKEEIAYHKAHGGEISPLFTGGHNNMVASITTLATPHNGSQAADKFGNTEAVRKIMFALNRFMGNKYSNIDLGLTQWGFKQLPNESYIDYIKRVSKSKIWTSDDNAAYDLTLDGSAKLNNMTSMNPNITYTTYTGVSSHTGPLGYENPDLGTFFLMATTSRIIGHDAREEWRKNDGVVPVISSLHPSNQPFVNVTNDEPATRRGIWQVKPIIQGWDHVDFIGVDFLDFKRKGAELANFYTGIINDLLRVEATESKGTQLKAS
notes: Staphylococcus aureus lipase (glycerol ester hydrolase), mature form of 394 residues processed from the prepolypeptide of 690 residues; numbers count on: the mature protein; Residues 4-385 are visible in the crystal; The pCold II vector is surmised to add the His tag at the N-terminus; also called SA lipase; glycerol ester hydrolase; source: E. coli, purified (three-step chromatography, …)
- stoichiometry N [2]: 2
